# Reference: ChEMBL document CHEMBL4396870, “Pharmacological Chaperones for the Treatment of α-Mannosidosis” (J Med Chem, 2019)
# Substitutions are numbered along the chain they refer to.
# Tests used:
# [1] = target: T1, Lysosomal alpha-mannosidase (Homo sapiens) (UniProt O00754); assay: Chaperone activity at Lysosomal alpha-mannosidase in wild-type human fibroblasts assessed as increase in Lysosomal alpha-mannosidase activity at 0.2 uM using 4-methylumbelliferone alpha-D-mannopyranoside as a reporter substrate incubated for 4 days by fluorescence method relative to control
# T1 sequence (whole entry): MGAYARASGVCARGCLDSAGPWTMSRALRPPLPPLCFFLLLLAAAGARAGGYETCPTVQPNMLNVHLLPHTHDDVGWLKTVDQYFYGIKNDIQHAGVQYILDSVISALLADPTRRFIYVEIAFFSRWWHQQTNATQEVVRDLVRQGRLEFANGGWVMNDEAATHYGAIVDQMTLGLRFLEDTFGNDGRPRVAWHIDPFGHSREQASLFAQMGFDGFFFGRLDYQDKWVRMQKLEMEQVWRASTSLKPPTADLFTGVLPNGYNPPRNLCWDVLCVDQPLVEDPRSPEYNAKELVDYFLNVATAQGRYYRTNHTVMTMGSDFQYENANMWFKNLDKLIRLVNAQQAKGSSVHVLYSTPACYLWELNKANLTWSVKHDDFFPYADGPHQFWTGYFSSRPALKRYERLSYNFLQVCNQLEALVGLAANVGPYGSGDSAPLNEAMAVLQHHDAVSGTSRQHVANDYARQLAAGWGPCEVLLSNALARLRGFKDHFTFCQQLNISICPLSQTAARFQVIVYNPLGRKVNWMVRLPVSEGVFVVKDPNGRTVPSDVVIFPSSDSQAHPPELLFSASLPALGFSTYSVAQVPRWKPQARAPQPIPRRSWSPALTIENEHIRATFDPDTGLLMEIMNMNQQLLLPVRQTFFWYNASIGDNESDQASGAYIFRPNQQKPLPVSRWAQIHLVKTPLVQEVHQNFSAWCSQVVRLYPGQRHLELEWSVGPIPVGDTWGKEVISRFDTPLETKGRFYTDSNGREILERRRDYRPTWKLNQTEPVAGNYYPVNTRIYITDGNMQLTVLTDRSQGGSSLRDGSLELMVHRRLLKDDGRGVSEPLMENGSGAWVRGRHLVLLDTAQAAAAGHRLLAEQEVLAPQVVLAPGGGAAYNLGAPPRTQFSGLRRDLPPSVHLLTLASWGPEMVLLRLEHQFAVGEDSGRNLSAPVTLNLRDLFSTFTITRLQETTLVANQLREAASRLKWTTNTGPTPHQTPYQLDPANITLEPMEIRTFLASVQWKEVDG
# [2] = tested on: T2, Lysosomal alpha-mannosidase (Homo sapiens), O00754 [R916C]; assay: Chaperone activity at human Lysosomal alpha-mannosidase R916C mutant transfected in human […] knockout HAP1 cells assessed as enzyme activity enhancement at 0.2 uM incubated for 96 hrs relative to control
# T2 sequence (whole entry): T1 sequence (whole entry) with R916C
# [3] = tested on: T2, Lysosomal alpha-mannosidase (Homo sapiens), O00754 [R916C]; assay: Chaperone activity at human Lysosomal alpha-mannosidase R916C mutant transfected in human […] knockout HAP1 cells assessed as enzyme activity enhancement at 2 uM incubated for 96 hrs relative to control
fold change (FC) [1],Activity [2] [%],Activity [3] [%],Structure (SMILES)
2,,,CCCc1cn(CCCCCCN[C@@H]2[C@@H](O)[C@@H](O)[C@H](O)[C@H]3COC(=O)N32)nn1
,8,26,CC(C)(C)OC(=O)NCCCCCCCCCN[C@@H]1[C@@H](O)[C@@H](O)[C@H](O)[C@H]2COC(=O)N21
2,45,33,COC[C@H]1O[C@@H]2O[C@H]3[C@H](OC)[C@@H](OC)[C@@H](O[C@H]4[C@H](OC)[C@@H](OC)[C@@H](O[C@H]5[C@H](OC)[C@@H](OC)[C@@H](O[C@H]6[C@H](OC)[C@@H](OC)[C@@H](O[C@H]7[C@H](OC)[C@@H](OC)[C@@H](O[C@H]8[C@H](OC)[C@@H](OC)[C@@H](O[C@H]1[C@H](OC)[C@H]2OC)O[C@@H]8COC)O[C@@H]7COC)O[C@@H]6COC)O[C@@H]5COCc1cn(CCCCCCN[C@@H]2[C@@H](O)[C@@H](O)[C@H](O)[C@H]5COC(=O)N52)nn1)O[C@@H]4COC)O[C@@H]3COC
